# Assay results: US7396837B2, “Antitumoral analogs of lamellarins” (Pharma Mar, S.A.U., priority 2002, dated 2008)
# Like-named read-outs stand apart in the source and are kept apart here.
# Tests used:
# Assay type in all cases: cell-based
# [1] = tested on: DU-145; test: SRB colorimetric cell growth inhibition assay, DU-145; settings: for GI50: GI=growth inhibition, read-out: GI50 DU-145; for CC50: cell killing (cytotoxic effect), read-out: LC50 DU-145
# Outline: (§1)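 In this cytotoxicity screen, compound stays in contact with the cultured human cancer cells without washout; sulforhodamine B binding gives the measure of cell number, and endpoints separate growth inhibition from cytostasis (TGI) and killing (LC).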
# [2] = tested on: LNCaP; test: SRB colorimetric cell growth inhibition assay, LNCaP; settings: LN-caP; for GI50: GI=growth inhibition, read-out: GI50 LN-caP; for CC50: cell killing (cytotoxic effect), read-out: LC50 LN-caP
# Outline: as §1
# [3] = tested on: LoVo; test: SRB colorimetric cell growth inhibition assay, LoVo; settings: for GI50: GI=growth inhibition, read-out: GI50 LOVO; for CC50: cell killing (cytotoxic effect), read-out: LC50 LOVO; for IC (TGI): total growth inhibition (cytostatic effect), read-out: TGI LOVO
# Outline: as §1
# [4] = tested on: SK-BR-3; test: SRB colorimetric cell growth inhibition assay, SK-BR-3; settings: for GI50: GI=growth inhibition, read-out: GI50 SK-BR-3; for CC50: cell killing (cytotoxic effect), read-out: LC50 SK-BR-3
# Outline: as §1
# [5] = tested on: HT-29; test: SRB colorimetric cell growth inhibition assay, HT-29; settings: for GI50: GI=growth inhibition, read-out: GI50 HT-29; for CC50: cell killing (cytotoxic effect), read-out: LC50 HT-29; for IC (TGI): total growth inhibition (cytostatic effect), read-out: TGI HT-29
# Outline: as §1
# [6] = tested on: IGROV-ET; test: SRB colorimetric cell growth inhibition assay, IGROV-ET (ET-743 resistant); settings: IGROV-ET; for GI50: GI=growth inhibition, read-out: GI50 IGROV-ET; for CC50: cell killing (cytotoxic effect), read-out: LC50 IGROV-ET
# Outline: as §1
# [7] = tested on: HeLa-APL; test: SRB colorimetric cell growth inhibition assay, HeLa-APL (aplidine resistant); settings: Homo sapiens, HELA-APL; for GI50: GI=growth inhibition, read-out: GI50 HELA-APL; for CC50: cell killing (cytotoxic effect), read-out: LC50 HELA-APL; for IC (TGI): total growth inhibition (cytostatic effect), read-out: TGI HELA-APL
# Outline: as §1
# [8] = tested on: LoVo-Dox; test: SRB colorimetric cell growth inhibition assay, LoVo-Dox (MDR); settings: LOVO-DOX; for GI50: GI=growth inhibition, read-out: GI50 LOVO-DOX; for CC50: cell killing (cytotoxic effect), read-out: LC50 LOVO-DOX; for IC (TGI): total growth inhibition (cytostatic effect), read-out: TGI LOVO-DOX
# Outline: as §1
# [9] = tested on: PANC-1; test: SRB colorimetric cell growth inhibition assay, PANC-1; settings: for GI50: GI=growth inhibition, read-out: GI50 PANC-1; for CC50: cell killing (cytotoxic effect), read-out: LC50 PANC-1; for IC (TGI): total growth inhibition (cytostatic effect), read-out: TGI PANC-1
# Outline: as §1
# [10] = tested on: A-549; test: SRB colorimetric cell growth inhibition assay, A-549; settings: for GI50: GI=growth inhibition, read-out: GI50 A-549; for CC50: cell killing (cytotoxic effect), read-out: LC50 A-549; for IC (TGI): total growth inhibition (cytostatic effect), read-out: TGI A-549
# Outline: as §1
# [11] = tested on: HeLa; test: SRB colorimetric cell growth inhibition assay, HeLa; settings: Homo sapiens, HeLa; for GI50: GI=growth inhibition, read-out: GI50 HELA; for CC50: cell killing (cytotoxic effect), read-out: LC50 HELA; for IC (TGI): total growth inhibition (cytostatic effect), read-out: TGI HELA
# Outline: as §1
# [12] = tested on: IGROV; test: SRB colorimetric cell growth inhibition assay, IGROV; settings: IGROV; for GI50: GI=growth inhibition, read-out: GI50 IGROV; for CC50: cell killing (cytotoxic effect), read-out: LC50 IGROV
# Outline: as §1
# [13] = tested on: SK-MEL-28; test: SRB colorimetric cell growth inhibition assay, SK-MEL-28; settings: for GI50: GI=growth inhibition, read-out: GI50 MEL-28; for CC50: cell killing (cytotoxic effect), read-out: LC50 MEL-28
# Outline: as §1
# [14] = tested on: K-562; test: SRB colorimetric cell growth inhibition assay, K-562; settings: for GI50: GI=growth inhibition, read-out: GI50 K-562; for CC50: cell killing (cytotoxic effect), read-out: LC50 K-562; for IC (TGI): total growth inhibition (cytostatic effect), read-out: TGI K-562
# Outline: as §1
# [15] = Homo sapiens, SK-MEL-28, MEL-28
# [16] = total growth inhibition (cytostatic effect)
smiles,measurement,setting,value
COc1cc(-c2c3c4cc(OC)c(OC(=O)[C@@H](N)CC(C)C)cc4oc(=O)c3n3ccc4cc(OC(=O)[C@@H](N)CC(C)C)c(OC)cc4c23)ccc1OC(=O)[C@@H](N)CC(C)C [Compound 181],GI50,"[1]; Homo sapiens, DU-145, DU-145",24.9 nM
same,CC50,"[1]; Homo sapiens, DU-145, DU-145",10500 nM
same,IC (TGI),"[1]; Homo sapiens, DU-145, DU-145, total growth inhibition (cytostatic effect), read-out: TGI DU-145",59.4 nM
same,GI50,"[2]; Homo sapiens, LNCaP",59.3 nM
same,CC50,"[2]; Homo sapiens, LNCaP",678 nM
same,IC (TGI),"[2]; Homo sapiens, LNCaP, total growth inhibition (cytostatic effect), read-out: TGI LN-caP",237 nM
same,GI50,"[3]; Homo sapiens, LoVo",331 nM
same,CC50,"[3]; Homo sapiens, LoVo",10500 nM
same,IC (TGI),"[3]; Homo sapiens, LoVo",1100 nM
same,GI50,"[4]; Homo sapiens, SK-BR-3, SK-BR-3",20.6 nM
same,CC50,"[4]; Homo sapiens, SK-BR-3, SK-BR-3",862 nM
same,IC (TGI),"[4]; Homo sapiens, SK-BR-3, SK-BR-3, total growth inhibition (cytostatic effect), read-out: TGI SK-BR-3",59.2 nM
same,GI50,"[5]; Homo sapiens, HT-29, HT-29",3060 nM
same,CC50,"[5]; Homo sapiens, HT-29, HT-29",10500 nM
same,IC (TGI),"[5]; Homo sapiens, HT-29, HT-29",10500 nM
same,GI50,[6]; Homo sapiens,50 nM
same,CC50,[6]; Homo sapiens,10500 nM
same,IC (TGI),"[6]; Homo sapiens, total growth inhibition (cytostatic effect), read-out: TGI IGROV-ET",341 nM
same,GI50,[7],66.7 nM
same,CC50,[7],8140 nM
same,IC (TGI),[7],477 nM
same,GI50,[8]; Homo sapiens,94.5 nM
same,CC50,[8]; Homo sapiens,10500 nM
same,IC (TGI),[8]; Homo sapiens,470 nM
same,GI50,"[9]; Homo sapiens, PANC-1, PANC-1",86.4 nM
same,CC50,"[9]; Homo sapiens, PANC-1, PANC-1",10500 nM
same,IC (TGI),"[9]; Homo sapiens, PANC-1, PANC-1",2090 nM
same,GI50,"[10]; Homo sapiens, A549, A-549",19.8 nM
same,CC50,"[10]; Homo sapiens, A549, A-549",8180 nM
same,IC (TGI),"[10]; Homo sapiens, A549, A-549",209 nM
same,GI50,[11],47.8 nM
same,CC50,[11],10500 nM
same,IC (TGI),[11],632 nM
same,GI50,[12]; Homo sapiens,38 nM
same,CC50,[12]; Homo sapiens,3200 nM
same,IC (TGI),"[12]; Homo sapiens, total growth inhibition (cytostatic effect), read-out: TGI IGROV",231 nM
same,GI50,[13]; [15],16.8 nM
same,CC50,[13]; [15],2140 nM
same,IC (TGI),"[13]; Homo sapiens, SK-MEL-28, MEL-28, total growth inhibition (cytostatic effect), read-out: TGI MEL-28",95.6 nM
same,GI50,"[14]; Homo sapiens, K562, K-562",32.8 nM
same,CC50,"[14]; Homo sapiens, K562, K-562",7140 nM
same,IC (TGI),"[14]; Homo sapiens, K562, K-562",444 nM
COc1cc(-c2c3c4cc(OC)c(OC(=O)[C@@H](N)Cc5ccccc5)cc4oc(=O)c3n3ccc4c(OC(=O)[C@@H](N)Cc5ccccc5)c(OC)c(OC)cc4c23)ccc1OC(=O)[C@@H](N)Cc1ccccc1 [Compound 207],GI50,[1]; DU-145,23 nM
same,CC50,[1]; DU-145,74.8 nM
same,TGI DU-145,"[1]; DU-145, total growth inhibition (cytostatic effect)",4.16E−08 Molar
same,GI50,[2],127 nM
same,CC50,[2],4100 nM
same,TGI LN-caP,[2]; [16],9.44E−07 Molar
same,CC50,"[3]; Homo sapiens, LoVo",868 nM
same,IC (TGI),"[3]; Homo sapiens, LoVo",405 nM
same,GI50,[3]; LOVO,189 nM
same,GI50,[4]; SK-BR-3,202 nM
same,CC50,[4]; SK-BR-3,4210 nM
same,TGI SK-BR-3,"[4]; SK-BR-3, total growth inhibition (cytostatic effect)",1.07E−06 Molar
same,GI50,[5]; HT-29,3770 nM
same,CC50,"[5]; Homo sapiens, HT-29, HT-29",9260 nM
same,IC (TGI),"[5]; Homo sapiens, HT-29, HT-29",9260 nM
same,GI50,[6],43.6 nM
same,CC50,[6],2380 nM
same,TGI IGROV-ET,[6]; [16],2.86E−07 Molar
same,GI50,[7],77.9 nM
same,CC50,[7],3710 nM
same,IC (TGI),[7],1500 nM
same,CC50,[8]; Homo sapiens,9260 nM
same,IC (TGI),[8]; Homo sapiens,2850 nM
same,GI50,[8],316 nM
same,CC50,"[9]; Homo sapiens, PANC-1, PANC-1",9260 nM
same,IC (TGI),"[9]; Homo sapiens, PANC-1, PANC-1",2370 nM
same,GI50,[9]; PANC-1,127 nM
same,GI50,[10]; A-549,91.4 nM
same,CC50,"[10]; Homo sapiens, A549, A-549",3550 nM
same,IC (TGI),"[10]; Homo sapiens, A549, A-549",1020 nM
same,GI50,[11],42.2 nM
same,CC50,[11],3340 nM
same,IC (TGI),[11],1230 nM
same,GI50,[12],76.3 nM
same,CC50,[12],1550 nM
same,TGI IGROV,[12]; [16],3.18E−07 Molar
same,GI50,[13]; MEL-28,44.4 nM
same,CC50,[13]; MEL-28,4600 nM
same,TGI MEL-28,"[13]; MEL-28, total growth inhibition (cytostatic effect)",2.45E−07 Molar
same,CC50,"[14]; Homo sapiens, K562, K-562",9260 nM
same,IC (TGI),"[14]; Homo sapiens, K562, K-562",3060 nM
same,GI50,[14]; K-562,92 nM
